# Measurements: US6914045B2, “Glycopeptide antibiotics” (Wyeth Holdings Corporation, priority 2001, dated 2005)
# Columns and labels:
# Assay in all cases: in vitro antibacterial evaluation, MIC by broth dilution
# Format in all cases: cell-based
# [1] = system: Escherichia coli; settings: 18 hours at 35° C.
# Procedure, shortened: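 Step 1: dilute antibiotic across 64-0.06 μg/mL in Muller-Hinton II […]. Step 2: inoculate at 5×10^5 CFU/mL.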
# [2] = system: Streptococcus sp.; settings: broth dilution, 18 hours at 35° C.
# Procedure, shortened: (§1)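 Test organisms, which included recent clinical isolates resistant to methicillin, penicillin and/or vancomycin, were inoculated at 5×10^5 CFU/mL into Muller-Hinton II […] containing antibiotic at 64-0.06 μg/mL. Minimum inhibitory concentrations were then read as the lowest level inhibiting growth.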
# [3] = system: Enterococcus sp.; settings: broth dilution, 18 hours at 35° C.
# Procedure, shortened: as §1
# [4] = system: Staphylococcus sp.; settings: broth dilution, 18 hours at 35° C.
# Procedure, shortened: as §1
structure (smiles),measurement,setting,value
"CC(C)CC(=O)OCC1OC(OC2C(CO)OC(Oc3ccc(CC4NC(=O)C(Cc5ccccc5)NC(=O)CNC(=O)C(CO)NC(=O)C(C(O)C5CNC(=N)N5C5OC(CO)C(O)C(O)C5O)NC(=O)C(C(O)C5CNC(=N)N5)NC4=O)cc3)C(O)C2O)C(O)C(O)C1O (centres unmarked) [Example 283c, Cyclo[glycylphenylalanyl-O-[4-O-[6-O-(3-methylbutanoyl)-hexopyranosyl]hexopyranosyl]tyrosyl-3-(2-iminoimidazolidin-4-yl)seryl-3-(3-hexopyranosyl-2-iminoimidazolidin-4-yl)serylseryl]]",MIC Escherichia coli (ATCC 25922),[1]; Escherichia coli (ATCC 25922),128 mg/L
same,MIC Escherichia coli (GC 4559),[1]; Escherichia coli (GC 4559),128 mg/L
same,MIC Escherichia coli (GC 4560),[1]; Escherichia coli (GC 4560),8 mg/L
same,MIC Streptococcus pneumoniae (ATCC 6301),[2]; strain ATCC 6301,8 mg/L
same,MIC Streptococcus pneumoniae (GC 1894),[2]; strain GC 1894,4 mg/L
same,MIC Streptococcus pyogenes (GC 4563),[2]; strain GC 4563,16 mg/L
same,MIC Streptococcus agalactiae (GC 4564),[2]; strain GC 4564,16 mg/L
same,MIC Streptococcus pneumoniae (GC 4565),[2]; strain GC 4565,8 mg/L
same,MIC Enterococcus avium (GC 4558),[3]; Enterococcus avium (GC 4558),128 mg/L
same,MIC Enterococcus faecalis (ATCC 29212),[3]; Enterococcus faecalis (ATCC 29212),128 mg/L
same,MIC Enterococcus faecalis (GC 4553),[3]; Enterococcus faecalis (GC 4553),128 mg/L
same,MIC Enterococcus faecalis (GC 4554),[3]; Enterococcus faecalis (GC 4554),>128 mg/L
same,MIC Enterococcus faecalis (GC 6189),[3]; Enterococcus faecalis (GC 6189),128 mg/L
same,MIC Enterococcus faecium (GC 2243),[3]; Enterococcus faecium (GC 2243),128 mg/L
same,MIC Enterococcus faecium (GC 4556),[3]; Enterococcus faecium (GC 4556),128 mg/L
same,MIC Enterococcus faecium (GC 4557),[3]; Enterococcus faecium (GC 4557),16 mg/L
same,MIC Enterococcus faecalis (ATCC 29212),[3]; strain ATCC 29212,128 mg/L
same,MIC Enterococcus faecalis (GC 2242),[3]; strain GC 2242,128 mg/L
same,MIC Enterococcus faecium (GC 2243),[3]; strain GC 2243,128 mg/L
same,MIC Enterococcus faecalis (GC 2691),[3]; strain GC 2691,128 mg/L
same,MIC Enterococcus faecalis (GC 3059),[3]; strain GC 3059,>128 mg/L
same,MIC Enterococcus faecalis (GC 4552),[3]; strain GC 4552,128 mg/L
same,MIC Enterococcus faecalis (GC 4553),[3]; strain GC 4553,128 mg/L
same,MIC Enterococcus faecalis (GC 4554),[3]; strain GC 4554,>128 mg/L
same,MIC Enterococcus faecium (GC 4556),[3]; strain GC 4556,128 mg/L
same,MIC Enterococcus faecium (GC 4557),[3]; strain GC 4557,16 mg/L
same,MIC Enterococcus avium (GC 4558),[3]; strain GC 4558,128 mg/L
same,MIC Enterococcus faecalis (GC 6189),[3]; strain GC 6189,128 mg/L
same,MIC Coagulase Negative Staphylococcus (GC 4547),[4],16 mg/L
same,MIC Coagulase Negative Staphylococcus (GC 4548),[4],8 mg/L
same,MIC Coagulase Negative Staphylococcus (GC 4549),[4],16 mg/L
same,MIC Coagulase Negative Staphylococcus (GC 4551),[4],32 mg/L
same,MIC Staphylococcus aureus (ATCC 29213),[4],32 mg/L
same,MIC Staphylococcus aureus (GC 1131),[4],32 mg/L
same,MIC Staphylococcus aureus (GC 3051),[4],32 mg/L
same,MIC Staphylococcus aureus (GC 3053),[4],64 mg/L
same,MIC Staphylococcus aureus (GC 4541),[4],32 mg/L
same,MIC Staphylococcus aureus (GC 4542),[4],32 mg/L
same,MIC Staphylococcus aureus (GC 4544),[4],32 mg/L
same,MIC Staphylococcus aureus (GC 4545),[4],16 mg/L
same,MIC Staphylococcus aureus-SMITH (GC 4543),[4],16 mg/L
same,MIC Staphylococcus haemolyticus (GC 4546),[4],16 mg/L
same,MIC Staphylococcus aureus (ATCC 29213),[4]; strain ATCC 29213,32 mg/L
same,MIC Staphylococcus aureus (GC 1131),[4]; strain GC 1131,32 mg/L
same,MIC Staphylococcus aureus (GC 3051),[4]; strain GC 3051,32 mg/L
same,MIC Staphylococcus aureus (GC 3053),[4]; strain GC 3053,64 mg/L
same,MIC Staphylococcus aureus (GC 4541),[4]; strain GC 4541,32 mg/L
same,MIC Staphylococcus aureus (GC 4542),[4]; strain GC 4542,32 mg/L
same,MIC Staphylococcus aureus (GC 4544),[4]; strain GC 4544,32 mg/L
same,MIC Staphylococcus aureus (GC 4545),[4]; strain GC 4545,16 mg/L
same,MIC Staphylococcus haemolyticus (GC 4546),[4]; strain GC 4546,16 mg/L
same,MIC Coagulase Negative Staphylococcus (GC 4547),[4]; strain GC 4547,16 mg/L
same,MIC Coagulase Negative Staphylococcus (GC 4548),[4]; strain GC 4548,8 mg/L
same,MIC Coagulase Negative Staphylococcus (GC 4549),[4]; strain GC 4549,16 mg/L
same,MIC Coagulase Negative Staphylococcus (GC 4551),[4]; strain GC 4551,32 mg/L
same,MIC Staphylococcus aureus-SMITH (GC 4543),[4]; strain SMITH GC 4543,16 mg/L
